Reference: patent publication EP4785795A1 (priority 2023, dated 2025)

System: Aspergillus flavus
Type: cell-based

SMILES | aflatoxin production inhibiting activity | aflatoxin production inhibiting activity relative to the natural product cyclo (L-Ala-Gly) (based on the IC50 (concentration that reduces the amount of aflatoxin B1 to 1/2), 25°C, 4 days) [fold]
C[C@H]1NC(=O)CNC1=O [cyclo (D-Ala-Gly)] | did not exhibit sufficient aflatoxin production inhibiting activity | –
O=C1CNC(=O)CN1 [cyclo (Gly-Gly)] | did not exhibit sufficient aflatoxin production inhibiting activity | –
CC[C@@H]1NC(=O)CNC1=O [cyclo (L-Abu(2)-Gly)] | extremely excellent aflatoxin production inhibiting activity | 75
